From patent publication US20140369979A1, “VECTOR SIMULTANEOUSLY EXPRESSING DODECAMERIC TRAIL AND HSV-TK SUICIDE GENES, AND ANTICANCER STEM CELL THERAPEUTIC AGENT USING SAME” (POSTECH ACADEMY-INDUSTRY FOUNDATION, priority 2012, published 2014)

Columns and labels:
MSC/dTRAIL-TK = assay: Survival rate of MSC/dTRAIL-TK after GCV treatment (MTS method); type: cell-based, rat; details: 100 μM GCV, one week after treatment
Protocol: In order to examine the suicide induction effect of MSC/dTRAIL-TK by GCV treatment, cells were treated with 10, 30, and 100 μM of GCV. From 1 day after GCV treatment, survival rate of MSC/dTRAIL-TK was examined by an MTS method every other day.

[1] = test system: TRAIL expression by MSC/dTRAIL-TK; assay: TRAIL expression of MSC/dTRAIL-TK after GCV treatment (ELISA of culture broth); type: cell-based, rat; details: GCV 10, 30, 100 μM, culture broth every 24 hours
Protocol: Next, in order to examine whether TRAIL expression is reduced by MSC/dTRAIL-TK apoptosis, GCV was treated at the same concentrations, and the culture broth was collected every 24 hours to examine TRAIL expression by ELISA (enzyme-linked immunosorbent assay).

For Nc1nc(O)c2ncn(COC(CO)CO)c2n1 [GCV, ganciclovir], the “survival rate of MSC/dTRAIL-TK” value (MSC/dTRAIL-TK) was “almost all cells were eliminated” and the TRAIL expression [1] was “TRAIL expression was reduced”.
